# From the supplement of paper PMC10307832
# Compound: CC1(C)CNc2cc(NC(=O)c3cccnc3NCc3ccncc3)ccc21 [Motesanib]
# Test: relative viability (nuclei count vs DMSO), 5 days (fraction); higher = more cells survive
# Details: 1 µM
# Method in brief: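 MetaXpress counted nuclei in 4× images of lung cancer cell lines that had been fixed, permeabilised and Hoechst-stained in one step. Before that, cells in 1536-well plates were kept overnight at 37 °C, pinned with five √10-spaced library-drug doses on vehicle-anchored plates, and cultured 5 days without medium change. Viability takes treated-well nuclei over vehicle-well nuclei and uses the median across plates. Plates were accepted only at control CV below 25% and at least one doubling.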
row,Cell Line,relative viability
1,NCI-H650,0.907
2,PC-3 [JPC-3],1.05

# Compound: C[C@@]1(C(=O)Nc2ccc(F)nc2)CCCN1c1nc(Nc2cc(C3CC3)n[nH]2)c2cccn2n1 + CS(=O)(=O)CCNCc1ccc(-c2ccc3ncnc(Nc4ccc(OCc5cccc(F)c5)c(Cl)c4)c3c2)o1 [Lapatinib] (partner 2 µM)
# Test: relative viability (nuclei count vs DMSO), 5 days (fraction); higher = more cells survive
# Details: first compound 0.04 µM
# Method in brief: (§1)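 A single step with final 0.05% Triton X-100, 1% formaldehyde and 1 ug/ml Hoechst fixed the cells and stained nuclei 5 days after treatment. Lung cancer cell lines in 1536-well plates had been treated by pin tool the day after seeding with one drug alone or a fixed anchor-drug dose plus five library-drug doses (not always all listed) in √10 steps, and nuclei were counted on 4× images. Relative viability is the ratio of nuclei in treated wells to nuclei in vehicle wells, taken as the median of duplicate plates.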
row,Cell Line,relative viability
1,NCI-H23,0.958
2,NCI-H1299,1.01
3,NCI-H647,1.07
4,CAL-12T,0.8
5,NCI-H1651,0.707
6,EPLC-272H,0.885
7,NCI-H2228,1.18
8,NCI-H1792,0.82
9,NCI-H1355,0.908
10,NCI-H3122,0.94
11,NCI-H1437,0.626
12,NCI-H1755,1.02
13,NCI-H2023,0.722
14,HCC-15,0.839
15,NCI-H1793,0.801
16,PC-14,0.329
17,EKVX,0.184
18,LC-2-ad,0.904
19,NCI-H1563,1.1
20,NCI-H1944,0.679
21,NCI-H1975,0.844
22,RERF-LC-KJ,0.793
23,ABC-1,1.14
24,NCI-H358,0.304
25,NCI-H650,0.853
26,PC-3 [JPC-3],0.457

# Same assay, conditions: first compound 0.1265 µM
row,Cell Line,relative viability
1,NCI-H23,0.496
2,NCI-H1299,1.03
3,NCI-H647,1.03
4,CAL-12T,0.442
5,NCI-H1651,0.706
6,EPLC-272H,0.668
7,NCI-H2228,0.721
8,NCI-H1792,0.412
9,NCI-H1355,0.831
10,NCI-H3122,1.03
11,NCI-H1437,0.445
12,NCI-H1755,0.864
13,NCI-H2023,0.542
14,HCC-15,0.743
15,NCI-H1793,0.469
16,PC-14,0.282
17,EKVX,0.162
18,LC-2-ad,0.759
19,NCI-H1563,0.921
20,NCI-H1944,0.536
21,NCI-H1975,0.88
22,RERF-LC-KJ,0.715
23,ABC-1,1.59
24,NCI-H358,0.22
25,NCI-H650,0.828
26,PC-3 [JPC-3],0.403

# Same assay, conditions: first compound 0.4 µM
row,Cell Line,relative viability
1,NCI-H23,0.695
2,NCI-H1299,0.964
3,NCI-H647,0.84
4,CAL-12T,0.564
5,NCI-H1651,0.693
6,EPLC-272H,0.601
7,NCI-H2228,0.908
8,NCI-H1792,0.546
9,NCI-H1355,0.711
10,NCI-H3122,0.958
11,NCI-H1437,0.369
12,NCI-H1755,0.858
13,NCI-H2023,0.259
14,HCC-15,0.746
15,NCI-H1793,0.568
16,PC-14,0.264
17,EKVX,0.137
18,LC-2-ad,0.745
19,NCI-H1563,0.755
20,NCI-H1944,0.426
21,NCI-H1975,0.601
22,RERF-LC-KJ,0.692
23,ABC-1,0.752
24,NCI-H358,0.259
25,NCI-H650,0.625
26,PC-3 [JPC-3],0.382

# Same assay, conditions: first compound 1.265 µM
row,Cell Line,relative viability
1,NCI-H23,0.6
2,NCI-H1299,0.967
3,NCI-H647,0.457
4,CAL-12T,0.555
5,NCI-H1651,0.746
6,EPLC-272H,0.72
7,NCI-H2228,0.578
8,NCI-H1792,0.696
9,NCI-H1355,0.654
10,NCI-H3122,1.03
11,NCI-H1437,0.496
12,NCI-H1755,0.994
13,NCI-H2023,0.236
14,HCC-15,0.739
15,NCI-H1793,0.53
16,PC-14,0.271
17,EKVX,0.133
18,LC-2-ad,0.32
19,NCI-H1563,0.723
20,NCI-H1944,0.582
21,NCI-H1975,0.594
22,RERF-LC-KJ,0.696
23,ABC-1,0.633
24,NCI-H358,0.251
25,NCI-H650,0.55
26,PC-3 [JPC-3],0.398

# Compound: CC1(C)CNc2cc(NC(=O)c3cccnc3NCc3ccncc3)ccc21 [Motesanib] + CS(=O)(=O)N1CCN(Cc2cc3nc(-c4cccc5[nH]ncc45)nc(N4CCOCC4)c3s2)CC1 [Pictilisib] (partner 1 µM)
# Test: as above
# Details: first compound 0.01 µM
# Method in brief: as §1
row,Cell Line,relative viability
1,NCI-H23,0.415
2,NCI-H1299,0.59
3,NCI-H1651,0.607
4,EPLC-272H,0.296
5,NCI-H2228,0.442
6,NCI-H1792,0.296
7,NCI-H1355,0.47
8,NCI-H3122,0.46
9,NCI-H1437,0.441
10,NCI-H1755,0.395
